Measurements reported in patent publication US11549198B2, “Method of producing non-woven protein fibers” (Rowan University, priority 2017, dated 2023).

Assay: Drug release study of model drugs from corn zein fibers and films in phosphate buffer
Format: physicochemical
Conditions: for n value from the Korsmeyer-Peppas equation of model drug release profile / release percentage at the 15-minute time point: 20 mM phosphate buffer (pH 7.0); for n value from the Korsmeyer-Peppas equation of model drug release profile: up to 96 hours; for release percentage at the 15-minute time point: fibers
Description: Approximately 0.05 g of film or fiber mesh was placed in 50 mL of 20 mM phosphate buffer (pH 7.0). Drug release was done in triplicate under conditions of dynamic flow. At the appropriate time points (15 minutes, 30 minutes, 1 hour, 2 hours, 3 hours, 4 hours, 5 hours, 24 hours, 48 hours, 96 hours), aliquots of solution were removed from the samples. The absorbance of each aliquot was measured at the appropriate wavelength for the corresponding model drug using a SpectraMax i3x Plate Reader (Molecular Devices LLC, Sunnyvale, Calif., USA). Absorbance was related to concentration and the values from the three aliquots were averaged and graphed as a function of time. Upon completion of the study, fibers were extracted from solution via suction filtration and dried overnight. Release profiles were then fit with the Krosmeyer-Peppas release model shown in equation 1: […]
To further investigate the potential effectiveness of the supramolecular systems for transdermal drug delivery, drug release of the model drugs incorporated in either films or fibers was simulated in 0.1% w/v 20 mM phosphate buffer (pH 7.0) for different times. Shown in FIGS. 16A-16B are the normalized release profiles for the fiber and film models, respectively. Data points were normalized based on the amount of drug released at 96 hours. No significant drug release was observed above 96 hours for all samples. […] Alcian blue is a very large molecule (MW 1.3 kDa), so it is reasonable to assume its bulkiness prevents it from being efficiently integrated into the zein structure. […] This can be attributed to the nature of the method used to fabricate the films. The corn zein was exposed to formic acid for a longer period of time during film synthesis than during fiber generation. During this time, the formic acid may have severed some of the hydrogen bonds of the corn zein structure, allowing the integration of the model drug molecules.

Row | Structure (SMILES) | n value from the Korsmeyer-Peppas equation of model drug release profile (Fiber) | n value from the Korsmeyer-Peppas equation of model drug release profile (Film) | release percentage at the 15-minute time point | release profile at the earlier points (films, in contrast to the fibers)
1 | CN(C)C(SCc1ccc2c(c1)-c1nc-2nc2[n-]c(nc3nc(nc4[n-]c(n1)c1ccc(CSC(N(C)C)=[N+](C)C)cc41)-c1ccc(CSC(N(C)C)=[N+](C)C)cc1-3)c1ccc(CSC(N(C)C)=[N+](C)C)cc21)=[N+](C)C.[Cl-].[Cl-].[Cl-].[Cl-].[Cu+2] [Alcian Blue, alcian blue 8GX] | 0.1104 | 0.1507 | considerably high release percentage | –
2 | CN(C)c1ccc(C(=C2C=CC(=[N+](C)C)C=C2)c2ccc(N(C)C)cc2)cc1 [Crystal Violet, Crystal violet] | 0.353 | 0.1184 | – | –
3 | O=C1/C(=C2\Nc3ccc(S(=O)(=O)[O-])cc3C2=O)Nc2ccc(S(=O)(=O)[O-])cc21.[Na+].[Na+] [Indigo Carmine, indigo carmine] | 0.1318 | 0.430 | considerably high release percentage | dramatic drop
4 | CCN(CC)c1ccc2c(-c3ccccc3C(=O)O)c3ccc(=[N+](CC)CC)cc-3oc2c1.[Cl-] [Rhodamine B, rhodamine B] | 0.337 | 0.203 | – | –
5 | CO[C@H]1/C=C/O[C@@]2(C)Oc3c(C)c(O)c4c(O)c(c(/C=N/N5CCN(C)CC5)c(O)c4c3C2=O)NC(=O)/C(C)=C\C=C\[C@H](C)[C@H](O)[C@@H](C)[C@@H](O)[C@@H](C)[C@H](OC(C)=O)[C@@H]1C [Rifampin, rifampin] | 0.392 | 0.284 | – | –
